Ten molecules from patent publication US8084466B2, “Bicyclic heteroaryl-substituted imidazoles as modulators of the histamine H4 receptor” (Janssen Pharmaceutica NV, priority 2007, dated 2011) can be followed below.

The target in this test is T1, human histamine H4 receptor (Homo sapiens, UniProt Q9H3N8).
T1 construct: expressed in transfected cells; host or cells: SK-N-MC cells or COS7 cells, transient transfection with pH4R; cell membranes
Briefly: Binding Assay on Recombinant Human Histamine H4 Receptor. The following applies: competition binding with 3H-histamine (5 nM; KD 5 nM), membranes of SK-N-MC or COS7 cells expressing human H4 receptor; average of results; > = highest value tested. In outline: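 Membranes from SK-N-MC or COS7 cells transiently transfected with H4R incubated 45 min at room temperature with ³H-histamine; nonspecific binding defined with 10,000 nM histamine. Filtration and scintillation counting. Ki from competition with 5 nM ³H-histamine, using a KD of 5 nM.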

As usually defined, the Ki is the dissociation constant of the complex between target and ligand, obtained from inhibition or displacement.

Bounds are passed on as bounds.

T1 sequence (Q9H3N8 whole entry): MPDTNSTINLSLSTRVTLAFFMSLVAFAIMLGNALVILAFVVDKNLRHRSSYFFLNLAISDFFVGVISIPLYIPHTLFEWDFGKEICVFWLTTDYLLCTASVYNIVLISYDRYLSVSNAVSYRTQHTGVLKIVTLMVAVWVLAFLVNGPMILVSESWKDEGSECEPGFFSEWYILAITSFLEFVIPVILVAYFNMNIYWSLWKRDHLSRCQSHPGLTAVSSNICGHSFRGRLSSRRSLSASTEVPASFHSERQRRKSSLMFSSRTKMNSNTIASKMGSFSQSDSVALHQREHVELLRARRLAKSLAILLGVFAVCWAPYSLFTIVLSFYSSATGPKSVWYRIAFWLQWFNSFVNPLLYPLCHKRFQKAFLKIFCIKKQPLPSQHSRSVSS

On to `Cc1nc2ccc3nc(-c4cccc5c4c(Cl)cn5CCCCC4CCNCC4)[nH]c3c2s1` [Example 134, 7-[3-Chloro-1-(4-piperidin-4-yl-butyl)-1H-indol-4-yl]-2-methyl-8H-imidazo[4′,5′:3,4]benzo[1,2-d]thiazole], for which the inhibition constant Ki is greater than 10000 nM.
Take `COC(=O)c1ccc2nc(-c3cccc4c3c(Cl)cn4CCCCC3CCNCC3)[nH]c2c1` [Example 135, 2-[3-Chloro-1-(4-piperidin-4-yl-butyl)-1H-indol-4-yl]-3H-benzoimidazole-5-carboxylic acid methyl ester]: the Ki was greater than 10000 nM.
With `Cc1nc2ccc3nc(-c4cccc5c4c(Cl)cn5CCCCC4CCN(C)CC4)[nH]c3c2s1` [Example 136, 7-{3-Chloro-1-[4-(1-methyl-piperidin-4-yl)-butyl]-1H-indol-4-yl}-2-methyl-8H-imidazo[4′,5′:3,4]benzo[1,2-d]thiazole] the figure was 941 nM.
In the case of `COC(=O)c1ccc2nc(-c3cccc4c3c(Cl)cn4CCCCC3CCN(C)CC3)[nH]c2c1` [Example 137, 2-{3-Chloro-1-[4-(1-methyl-piperidin-4-yl)-butyl]-1H-indol-4-yl}-3H-benzoimidazole-5-carboxylic acid methyl ester] it was 2880 nM; in that of `Cc1ccc2[nH]c(-c3ccc4c(ncn4CCCC4CCNCC4)c3C)nc2c1C` [Example 138, 4,5,4′-Trimethyl-1′-(3-piperidin-4-yl-propyl)-1H,1′H-[2,5′]bibenzoimidazolyl], 429 nM.
For `Cc1cc(C)c2nc(-c3cccc4c3ccn4CCCCC3CCNCC3)[nH]c2c1` [Example 139, 4,6-Dimethyl-2-[1-(4-piperidin-4-yl-butyl)-1H-indol-4-yl]-1H-benzoimidazole], the Ki came to 2640 nM.
With `Clc1ccc2nc(-c3cccc4c3ccn4CCCCC3CCNCC3)[nH]c2c1` [Example 140, 6-Chloro-2-[1-(4-piperidin-4-yl-butyl)-1H-indol-4-yl]-1H-benzoimidazole], the Ki was 3330 nM.
With `FC(F)(F)c1ccc2nc(-c3cccc4c3ccn4CCCCC3CCNCC3)[nH]c2c1` [Example 141, 2-[1-(4-Piperidin-4-yl-butyl)-1H-indol-4-yl]-6-trifluoromethyl-1H-benzoimidazole], the Ki stood at 2170 nM.
On to `Cc1nc(-c2ccc3c(ncn3CCCC3CCN(C)CC3)c2C)[nH]c1-c1ccc(C(F)(F)F)cc1` [Example 142, 4-Methyl-1-[3-(1-methyl-piperidin-4-yl)-propyl]-5-[4-methyl-5-(4-trifluoromethyl-phenyl)-1H-imidazol-2-yl]-1H-benzoimidazole], for which the Ki worked out at 7 nM.
With `COc1ccc(-c2[nH]c(-c3ccc4c(ncn4CCCC4CCN(C)CC4)c3C)nc2C)cc1` [Example 143, 5-[5-(4-Methoxy-phenyl)-4-methyl-1H-imidazol-2-yl]-4-methyl-1-[3-(1-methyl-piperidin-4-yl)-propyl]-1H-benzoimidazole] the figure was 1 nM.
